Assay results from ChEMBL document CHEMBL5331073, “Discovery of novel 7,7-dimethyl-6,7-dihydro-5H-pyrrolo[3,4-d]pyrimidines as ATR inhibitors based on structure-based drug design” (Eur J Med Chem, 2023).
Converted amounts (≈) assume the structure as drawn. One block for each compound: values may come before it. The source made the active and inactive calls. The rule behind the calls is not given here.

Columns and labels:
[1] = test system: OVCAR-3; assay: Antiproliferative activity against ATM-deficient human OVCAR-3 cells assessed as reduction in cell viability incubated for 3 days by MTT assay; format: functional, cell-based; conditions: OVCAR-3, 72 h
[2] = biological target: Serine-protein kinase ATM (Homo sapiens, UniProt Q13315); assay: Inhibition of ATM (unknown origin) using peptide as substrate preincubated for 10 mins followed by substrate addition by microplate reader analysis
Sequence of Serine-protein kinase ATM (Q13315 whole entry): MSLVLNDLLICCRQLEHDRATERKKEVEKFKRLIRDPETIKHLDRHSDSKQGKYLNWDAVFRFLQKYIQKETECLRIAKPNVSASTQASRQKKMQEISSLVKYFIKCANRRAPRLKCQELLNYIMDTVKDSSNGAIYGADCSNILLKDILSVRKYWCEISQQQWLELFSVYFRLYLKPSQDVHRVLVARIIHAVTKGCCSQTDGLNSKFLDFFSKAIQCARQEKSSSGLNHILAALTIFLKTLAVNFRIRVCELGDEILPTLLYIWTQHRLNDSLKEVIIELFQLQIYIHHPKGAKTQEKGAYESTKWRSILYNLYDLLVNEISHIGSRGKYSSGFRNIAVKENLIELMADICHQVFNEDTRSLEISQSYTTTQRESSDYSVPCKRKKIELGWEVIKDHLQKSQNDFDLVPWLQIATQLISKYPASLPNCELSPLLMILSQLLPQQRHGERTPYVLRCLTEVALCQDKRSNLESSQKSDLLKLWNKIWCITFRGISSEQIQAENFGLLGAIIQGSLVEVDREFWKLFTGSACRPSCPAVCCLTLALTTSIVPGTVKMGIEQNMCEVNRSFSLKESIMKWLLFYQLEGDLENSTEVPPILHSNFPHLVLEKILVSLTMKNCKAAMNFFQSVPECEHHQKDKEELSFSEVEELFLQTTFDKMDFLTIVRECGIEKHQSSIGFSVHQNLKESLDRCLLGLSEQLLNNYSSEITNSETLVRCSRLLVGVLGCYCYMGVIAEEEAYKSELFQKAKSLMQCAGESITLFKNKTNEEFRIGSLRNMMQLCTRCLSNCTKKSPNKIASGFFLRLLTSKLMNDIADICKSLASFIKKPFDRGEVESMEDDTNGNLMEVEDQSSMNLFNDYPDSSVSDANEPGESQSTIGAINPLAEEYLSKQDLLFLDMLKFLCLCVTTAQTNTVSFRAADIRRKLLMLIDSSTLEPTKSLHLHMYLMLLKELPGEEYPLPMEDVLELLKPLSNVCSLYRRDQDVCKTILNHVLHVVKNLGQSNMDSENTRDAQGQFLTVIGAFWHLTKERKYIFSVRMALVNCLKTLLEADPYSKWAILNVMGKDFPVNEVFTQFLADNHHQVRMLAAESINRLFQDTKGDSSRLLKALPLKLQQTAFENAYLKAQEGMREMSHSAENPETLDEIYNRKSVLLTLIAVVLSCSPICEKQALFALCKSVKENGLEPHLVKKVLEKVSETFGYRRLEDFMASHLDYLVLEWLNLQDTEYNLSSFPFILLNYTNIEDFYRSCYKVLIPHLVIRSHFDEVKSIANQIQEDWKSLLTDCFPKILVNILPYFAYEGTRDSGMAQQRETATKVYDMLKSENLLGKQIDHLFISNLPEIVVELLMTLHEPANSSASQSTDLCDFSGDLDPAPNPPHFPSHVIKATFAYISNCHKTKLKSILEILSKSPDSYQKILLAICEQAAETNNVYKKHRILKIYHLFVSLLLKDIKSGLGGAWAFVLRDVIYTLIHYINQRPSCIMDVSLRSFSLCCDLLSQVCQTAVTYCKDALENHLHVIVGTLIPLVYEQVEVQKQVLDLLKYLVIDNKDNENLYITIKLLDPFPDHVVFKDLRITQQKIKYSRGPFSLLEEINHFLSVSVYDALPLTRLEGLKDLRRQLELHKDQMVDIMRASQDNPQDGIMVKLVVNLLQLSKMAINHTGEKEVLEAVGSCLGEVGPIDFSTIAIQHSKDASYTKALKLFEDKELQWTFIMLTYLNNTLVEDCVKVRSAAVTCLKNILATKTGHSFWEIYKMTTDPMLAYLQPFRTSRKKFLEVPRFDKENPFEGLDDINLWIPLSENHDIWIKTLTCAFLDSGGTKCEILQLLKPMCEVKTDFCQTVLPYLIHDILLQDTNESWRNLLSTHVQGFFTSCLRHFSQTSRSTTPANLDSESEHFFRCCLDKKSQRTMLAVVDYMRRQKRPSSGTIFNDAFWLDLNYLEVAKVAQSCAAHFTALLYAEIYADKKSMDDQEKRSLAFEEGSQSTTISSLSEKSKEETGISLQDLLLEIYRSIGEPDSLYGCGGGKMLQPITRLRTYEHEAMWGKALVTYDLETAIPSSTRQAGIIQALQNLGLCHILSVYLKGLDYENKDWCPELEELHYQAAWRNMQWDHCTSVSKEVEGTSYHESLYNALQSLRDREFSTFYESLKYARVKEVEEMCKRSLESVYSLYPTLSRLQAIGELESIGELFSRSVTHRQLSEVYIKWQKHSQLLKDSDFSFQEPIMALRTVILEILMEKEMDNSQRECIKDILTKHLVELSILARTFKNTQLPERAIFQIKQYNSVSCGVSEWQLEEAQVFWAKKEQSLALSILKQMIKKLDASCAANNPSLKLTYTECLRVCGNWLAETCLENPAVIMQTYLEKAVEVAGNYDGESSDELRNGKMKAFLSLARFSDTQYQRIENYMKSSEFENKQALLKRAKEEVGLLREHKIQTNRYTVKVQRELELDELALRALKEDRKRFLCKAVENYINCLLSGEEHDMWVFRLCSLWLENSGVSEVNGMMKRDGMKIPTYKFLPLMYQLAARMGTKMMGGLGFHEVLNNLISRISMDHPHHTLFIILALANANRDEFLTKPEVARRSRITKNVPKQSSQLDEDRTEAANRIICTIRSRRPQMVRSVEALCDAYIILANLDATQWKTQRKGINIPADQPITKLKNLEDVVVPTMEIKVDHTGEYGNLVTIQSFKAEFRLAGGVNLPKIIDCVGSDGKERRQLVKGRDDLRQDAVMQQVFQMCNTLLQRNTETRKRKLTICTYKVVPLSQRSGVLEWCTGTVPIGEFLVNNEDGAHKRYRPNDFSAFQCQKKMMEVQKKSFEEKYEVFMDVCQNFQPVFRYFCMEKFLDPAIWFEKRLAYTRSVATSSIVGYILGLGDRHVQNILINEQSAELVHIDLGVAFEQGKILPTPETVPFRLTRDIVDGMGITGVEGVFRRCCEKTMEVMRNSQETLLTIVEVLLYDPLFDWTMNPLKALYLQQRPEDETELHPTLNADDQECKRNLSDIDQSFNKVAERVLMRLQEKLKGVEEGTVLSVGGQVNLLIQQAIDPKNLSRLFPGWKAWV

[3] = test system: HCT-116; assay: Synergistic antiproliferative activity against ATM-proficient human HCT-116 cells assessed as reduction in cell viability incubated for 3 days in presence of oxaliplatin by MTT assay; format: functional, cell-based; conditions: HCT-116, 72 h
[4] = biological target: Cytochrome P450 2C9 (Homo sapiens, UniProt P11712); assay: Inhibition of CYP2C9 in human liver microsomes using […] as substrate preincubated for 5 mins followed by NADPH addition and measured after 120 mins by LC-MS/MS analysis; format: ADME, Microsome
[5] = Apparent permeability across basolateral to apical side in human Caco-2 cells by bidirectional permeability assay; format: ADME, cell-based
[6] = biological target: Serine/threonine-protein kinase mTOR (Homo sapiens, UniProt P42345); assay: Inhibition of mTOR (unknown origin) using peptide as substrate preincubated for 10 mins followed by substrate addition by microplate reader analysis
[7] = test system: A549; assay: Antiproliferative activity against ATM-proficient human A549 cells assessed as reduction in cell viability incubated for 3 days by MTT assay; format: functional, cell-based; conditions: A549, 72 h
[8] = AUC(0 to infinity) in Sprague-Dawley rat at 1 mg/kg, iv and measured upto 24 hrs by LC-MS analysis; format: ADME, organism-based; set-up: time < 24 hrs, dose 1 mg/kg, route iv; conditions: in vivo
[9] = AUC (0 to infinity) in Sprague-Dawley rat at 5 mg/kg, po and measured upto 24 hrs by LC-MS analysis; format: ADME, organism-based; set-up: time < 24 hrs, dose 5 mg/kg, route po; conditions: in vivo
[10] = test system: A549; assay: Synergistic antiproliferative activity against ATM-proficient human A549 cells assessed as reduction in cell viability incubated for 3 days in presence of cisplatin by MTT assay; format: functional, cell-based; conditions: A549, 72 h
[11] = Protein binding in mouse plasma at 1 uM incubated for 6 hrs by dialysis based LC-MS/MS analysis; format: ADME, cell-free; conditions: read-out: PPB (converted)
[12] = in vitro; conditions: human, liver microsomes
[13] = test system: HCT-116; assay: Antiproliferative activity against ATM-proficient human HCT-116 cells assessed as reduction in cell viability incubated for 3 days in presence of AZD-1390 by MTT assay; format: functional, cell-based; conditions: HCT-116, 72 h
[14] = in vitro; conditions: rat, liver microsomes
[15] = test system: MCF7; assay: Antiproliferative activity against human MCF7 cells assessed as reduction in cell viability incubated for 3 days by MTT assay; format: functional, cell-based; conditions: MCF7, 72 h
[16] = in vitro; conditions: human, liver microsomes; remark: listed apart in the source
[17] = biological target: T1, Cytochrome P450 3A4 (Homo sapiens, UniProt P08684); assay: Inhibition of CYP3A4 in human liver microsomes using midazolam as substrate preincubated for 5 mins followed by NADPH addition and measured after 120 mins by LC-MS/MS analysis; format: ADME, Microsome
T1 sequence (P08684 whole entry): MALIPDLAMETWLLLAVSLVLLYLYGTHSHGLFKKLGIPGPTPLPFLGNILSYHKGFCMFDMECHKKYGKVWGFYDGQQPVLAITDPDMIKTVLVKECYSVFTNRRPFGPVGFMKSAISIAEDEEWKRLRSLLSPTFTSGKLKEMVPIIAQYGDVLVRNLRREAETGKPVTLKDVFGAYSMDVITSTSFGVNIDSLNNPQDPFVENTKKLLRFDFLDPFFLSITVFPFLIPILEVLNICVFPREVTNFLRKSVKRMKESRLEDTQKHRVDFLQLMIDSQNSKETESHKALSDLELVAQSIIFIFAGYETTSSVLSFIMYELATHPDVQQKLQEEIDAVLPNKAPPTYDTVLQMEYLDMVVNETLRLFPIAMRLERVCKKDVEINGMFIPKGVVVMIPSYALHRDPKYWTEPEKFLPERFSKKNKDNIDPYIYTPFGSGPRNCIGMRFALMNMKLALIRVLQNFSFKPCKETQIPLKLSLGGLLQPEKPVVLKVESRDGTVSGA

[18] = test system: LoVo; assay: Antimigratory activity against ATM-deficient human LoVo cells assessed as inhibition of cell migration at 0.03 to 3 uM incubated for 24 hrs by crystal violet staining based Transwell migration assay; format: functional; conditions: dose 0.03-3 µM
[19] = biological target: Phosphatidylinositol 4,5-bisphosphate 3-kinase catalytic subunit alpha isoform (Homo sapiens, UniProt P42336); assay: Inhibition of PI3Kalpha (unknown origin) using peptide as substrate preincubated for 10 mins followed by substrate addition by microplate reader analysis
Sequence of Phosphatidylinositol 4,5-bisphosphate 3-kinase catalytic subunit alpha isoform (P42336 whole entry, canonical isoform): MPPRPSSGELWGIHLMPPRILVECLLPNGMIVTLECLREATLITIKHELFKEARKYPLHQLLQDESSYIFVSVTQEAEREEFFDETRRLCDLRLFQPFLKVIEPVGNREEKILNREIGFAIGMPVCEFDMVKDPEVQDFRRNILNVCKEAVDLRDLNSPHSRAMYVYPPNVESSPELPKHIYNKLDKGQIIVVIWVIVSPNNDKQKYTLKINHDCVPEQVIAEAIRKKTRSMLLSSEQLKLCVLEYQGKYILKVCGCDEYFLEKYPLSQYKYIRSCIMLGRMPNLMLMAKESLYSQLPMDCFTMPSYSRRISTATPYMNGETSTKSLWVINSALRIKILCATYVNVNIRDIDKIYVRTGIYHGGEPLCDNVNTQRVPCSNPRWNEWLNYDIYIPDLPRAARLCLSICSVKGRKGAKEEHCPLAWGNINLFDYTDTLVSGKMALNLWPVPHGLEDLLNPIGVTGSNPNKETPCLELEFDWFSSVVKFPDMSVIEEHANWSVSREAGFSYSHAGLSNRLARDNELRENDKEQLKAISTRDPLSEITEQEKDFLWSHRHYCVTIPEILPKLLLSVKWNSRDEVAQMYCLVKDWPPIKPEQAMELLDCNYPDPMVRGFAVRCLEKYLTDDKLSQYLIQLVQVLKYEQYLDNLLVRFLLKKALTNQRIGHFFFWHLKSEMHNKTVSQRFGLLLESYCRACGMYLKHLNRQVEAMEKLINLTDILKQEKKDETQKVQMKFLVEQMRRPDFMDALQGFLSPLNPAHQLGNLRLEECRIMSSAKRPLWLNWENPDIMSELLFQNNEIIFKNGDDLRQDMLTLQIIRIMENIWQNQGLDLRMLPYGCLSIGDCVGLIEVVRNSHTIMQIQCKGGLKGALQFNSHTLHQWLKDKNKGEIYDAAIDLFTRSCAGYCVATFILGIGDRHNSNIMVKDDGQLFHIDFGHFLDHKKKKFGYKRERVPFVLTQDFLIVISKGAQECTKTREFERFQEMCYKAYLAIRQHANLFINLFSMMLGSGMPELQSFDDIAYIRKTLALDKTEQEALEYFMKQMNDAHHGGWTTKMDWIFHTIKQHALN

[20] = Protein binding in rat plasma at 1 uM incubated for 6 hrs by dialysis based LC-MS/MS analysis; format: ADME, cell-free; conditions: read-out: PPB (converted)
[21] = biological target: Cytochrome P450 2D6 (Homo sapiens, UniProt P10635); assay: Inhibition of CYP2D6 in human liver microsomes using […] as substrate preincubated for 5 mins followed by NADPH addition and measured after 120 mins by LC-MS/MS analysis; format: ADME, Microsome
Sequence of Cytochrome P450 2D6 (P10635 whole entry): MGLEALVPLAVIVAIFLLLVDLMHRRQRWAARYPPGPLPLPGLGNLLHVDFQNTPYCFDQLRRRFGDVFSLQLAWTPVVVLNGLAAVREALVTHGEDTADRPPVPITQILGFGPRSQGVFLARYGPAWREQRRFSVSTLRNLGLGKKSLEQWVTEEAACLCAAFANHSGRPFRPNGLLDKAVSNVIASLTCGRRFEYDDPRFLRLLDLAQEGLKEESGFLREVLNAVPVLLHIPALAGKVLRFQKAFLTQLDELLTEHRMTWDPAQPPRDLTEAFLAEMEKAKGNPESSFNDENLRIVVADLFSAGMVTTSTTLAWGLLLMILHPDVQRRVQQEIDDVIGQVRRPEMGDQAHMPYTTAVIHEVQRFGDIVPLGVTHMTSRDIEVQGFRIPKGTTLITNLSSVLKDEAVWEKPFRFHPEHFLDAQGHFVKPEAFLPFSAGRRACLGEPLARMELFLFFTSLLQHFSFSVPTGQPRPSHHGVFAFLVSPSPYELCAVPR

[22] = Cmax in Sprague-Dawley rat at 5 mg/kg, po and measured upto 24 hrs by LC-MS analysis; format: ADME, organism-based; set-up: time < 24 hrs, dose 5 mg/kg, route po; conditions: in vivo
[23] = test system: HCT-116; assay: Synergistic antiproliferative activity against ATM-proficient human HCT-116 cells assessed as reduction in cell viability incubated for 3 days in presence of cisplatin by MTT assay; format: functional, cell-based; conditions: HCT-116, 72 h
[24] = Oral bioavailability in Sprague-Dawley rat at 5 mg/kg and measured upto 24 hrs by LC-MS analysis; format: ADME, organism-based; conditions: in vivo
[25] = test system: HCT-116; assay: Antiproliferative activity against ATM-proficient human HCT-116 cells assessed as reduction in cell viability incubated for 3 days by MTT assay; format: functional, cell-based; conditions: HCT-116, 72 h
[26] = Aqueous solubility of compound at pH 2.0 by HPLC-MS/MS analysis; format: physicochemical; conditions: aqueous medium
[27] = test system: HT-29; assay: Antiproliferative activity against ATM-proficient human HT-29 cells assessed as reduction in cell viability incubated for 3 days in presence of AZD-1390 by MTT assay; format: functional, cell-based; conditions: HT-29, 72 h
[28] = MRT(t) in Sprague-Dawley rat at 5 mg/kg, po and measured upto 24 hrs by LC-MS analysis; format: ADME, organism-based; conditions: in vivo
[29] = in vitro; conditions: human, liver microsomes; remark: listed apart in the source
[30] = Protein binding in Beagle dog plasma at 1 uM incubated for 6 hrs by dialysis based LC-MS/MS analysis; format: ADME, cell-free, Canis lupus familiaris; conditions: read-out: PPB (converted)
[31] = Apparent permeability across apical to basolateral side in human Caco-2 cells by bidirectional permeability assay; format: ADME, cell-based
[32] = test system: MDA-MB-231; assay: Synergistic antiproliferative activity against human MDA-MB-231 cells assessed as reduction in cell viability incubated for 3 days in presence of olaparib by MTT assay; format: functional, cell-based; conditions: MDA-MB-231, 72 h
[33] = Half life in Sprague-Dawley rat at 1 mg/kg, iv and measured upto 24 hrs by LC-MS analysis; format: ADME, organism-based; conditions: in vivo
[34] = Protein binding in human plasma at 1 uM incubated for 6 hrs by dialysis based LC-MS/MS analysis; format: ADME, cell-free; conditions: read-out: PPB (converted)
[35] = test system: MDA-MB-231; assay: Antiproliferative activity against human MDA-MB-231 cells assessed as reduction in cell viability incubated for 3 days by MTT assay; format: functional, cell-based; conditions: MDA-MB-231, 72 h
[36] = Half life in Sprague-Dawley rat at 5 mg/kg, po and measured upto 24 hrs by LC-MS analysis; format: ADME, organism-based; conditions: in vivo
[37] = Clearance in Sprague-Dawley rat at 1 mg/kg, iv and measured upto 24 hrs by LC-MS analysis; format: ADME, organism-based; conditions: in vivo
[38] = AUCt in Sprague-Dawley rat at 5 mg/kg, po and measured upto 24 hrs by LC-MS analysis; format: ADME, organism-based; set-up: time < 24 hrs, dose 5 mg/kg, route po; conditions: in vivo
[39] = MRT (0 to infinity) in Sprague-Dawley rat at 5 mg/kg, po and measured upto 24 hrs by LC-MS analysis; format: ADME, organism-based; conditions: in vivo
[40] = Tmax in Sprague-Dawley rat at 5 mg/kg, po and measured upto 24 hrs by LC-MS analysis; format: ADME, organism-based; conditions: in vivo
[41] = MRT (0 to infinity) in Sprague-Dawley rat at 1 mg/kg, iv and measured upto 24 hrs by LC-MS analysis; format: ADME, organism-based; conditions: in vivo
[42] = biological target: T1, Cytochrome P450 3A4; assay: Inhibition of CYP3A4 in human liver microsomes using […] as substrate preincubated for 5 mins followed by NADPH addition and measured after 120 mins by LC-MS/MS analysis; format: ADME, Microsome

- IC50 [1]: 127 nM
- IC50 [2]: 516 nM
- IC50 [3]: 67 nM
- IC50 [4]: 10000 nM
- Papp B→A [5]: 2.3 ×10⁻⁶ cm/s
- IC50 [6]: 33 nM
- IC50 [7]: 741 nM
- AUC(0-inf) [8]: 2810 ng·h/mL
- AUC(0-inf) [9]: 6170 ng·h/mL
- IC50 [10]: 439 nM
- fraction unbound at 6 h, 1 µM [11]: 0.005
- half-life at 1 h, 1 µM [12]: 0.435 h
- IC50 [13]: 84 nM
- microsomal CLint at 1 h, 1 µM [14]: 35.3 µL/min/mg
- IC50 [15]: 730 nM
- CLint scaled at 1 h, 1 µM [16]: 50.3 mL/min/kg
- IC50 [17]: 1000 nM
- IC50 [19]: 1000 nM
- fraction unbound at 6 h, 1 µM [20]: 0.001
- IC50 [21]: > 10000 nM
- Cmax [22]: 1290 ng/mL
- IC50 [23]: 93 nM
- bioavailability [24]: 41.6%
- IC50 [25]: 196 nM
- solubility [26]: 47.6 µM (≈ 24.4 µg/mL)
- IC50 [27]: 45 nM
- MRT last at 24 h [28]: 4.36 h
- microsomal CLint at 1 h, 1 µM [29]: 53.2 µL/min/mg
- fraction unbound at 6 h, 1 µM [30]: 0.005
- Papp A→B [31]: 1.91 ×10⁻⁶ cm/s
- IC50 [32]: 279 nM
- half-life [33]: 1.59 h
- fraction unbound at 6 h, 1 µM [34]: 0.001
- IC50 [35]: 2570 nM
- half-life [36]: 3.81 h
- clearance [37]: 5.97 mL/min/kg
- AUC(0-t) at 24 h [38]: 5700 ng·h/mL
- MRT inf [39]: 4.21 h
- Tmax [40]: 1.67 h
- MRT inf [41]: 2.19 h
- IC50 [42]: 1000 nM
Structure (SMILES): C[C@@H]1COCCN1c1nc(-c2cccc3[nH]ccc23)nc2c1CN(C(=O)c1ccc3c(c1)OCO3)C2(C)C
- inhibition [18]: Active

- IC50 [1]: 98 nM
- IC50 [2]: 1000 nM
- IC50 [3]: 13 nM
- IC50 [4]: 10000 nM
- Papp B→A [5]: 16.7 ×10⁻⁶ cm/s
- IC50 [6]: 18 nM
- IC50 [7]: 302 nM
- AUC(0-inf) [8]: 1170 ng·h/mL
- AUC(0-inf) [9]: 1750 ng·h/mL
- IC50 [10]: 280 nM
- fraction unbound at 6 h, 1 µM [11]: 0.024
- half-life at 1 h, 1 µM [12]: 0.0567 h
- IC50 [13]: 1 nM
- microsomal CLint at 1 h, 1 µM [14]: 66.2 µL/min/mg
- IC50 [15]: 873 nM
- CLint scaled at 1 h, 1 µM [16]: 385 mL/min/kg
- IC50 [17]: 1000 nM
- IC50 [19]: 1000 nM
- fraction unbound at 6 h, 1 µM [20]: 0.039
- IC50 [21]: > 10000 nM
- Cmax [22]: 282 ng/mL
- IC50 [23]: 24 nM
- bioavailability [24]: 30%
- IC50 [25]: 41 nM
- solubility [26]: 84.3 µM (≈ 46 µg/mL)
- IC50 [27]: 19 nM
- MRT last at 24 h [28]: 3.6 h
- microsomal CLint at 1 h, 1 µM [29]: 407 µL/min/mg
- fraction unbound at 6 h, 1 µM [30]: 0.022
- Papp A→B [31]: 8.23 ×10⁻⁶ cm/s
- IC50 [32]: 435 nM
- half-life [33]: 1.32 h
- fraction unbound at 6 h, 1 µM [34]: 0.003
- IC50 [35]: 1070 nM
- half-life [36]: 2.66 h
- clearance [37]: 14.2 mL/min/kg
- AUC(0-t) at 24 h [38]: 1620 ng·h/mL
- MRT inf [39]: 4.26 h
- Tmax [40]: 2 h
- MRT inf [41]: 1.45 h
- IC50 [42]: 10000 nM
Structure (SMILES): C[C@@H]1COCCN1c1nc(-c2cccc3[nH]ccc23)nc2c1CN(C(=O)c1cccc(S(C)(=O)=O)c1)C2(C)C
- inhibition [18]: Active
